Results published in PMC9551036, “A selective and orally bioavailable VHL-recruiting PROTAC achieves SMARCA2 degradation in vivo” (Nature Communications, 2022).
Converted amounts (≈) assume the structure as drawn. “And” between values parts separate entries of the source, which are not always exact repeats. Equal values may be shown once. Read-outs that look alike come from different tables or passages of the source.

What was measured:
[1] = test system: VCB: PROTAC: SMARCA4^BD ternary complex; assay: TR-FRET ternary complex affinity and cooperativity, SMARCA4; assay type: binding, human; details: ratio TR-FRET EC50 / TR-FRET EC50 +VCB measured in the same run, SMARCA4BD
Caco-2 cell monolayer = assay: Bidirectional permeability measurement in Caco-2 cells; assay type: in vitro ADME
Description: Bidirectional permeability of test compounds across a Caco-2 cell monolayer was measured as described[43] with a modification of preincubation time[44]: Briefly, Caco-2 cells were seeded onto Transwell inserts (#3379, Corning, Wiesbaden, Germany) at a density of 160000 cells/cm^2 and cultured in DMEM (high glucose) containing 10% fetal bovine serum for 14–21 days. Cells were incubated with culture media containing 1 µM test compound for 24 h. […] Samples were taken at different time points for up to 2 h. Test compound in the samples was quantified with LC-MS/MS. To elucidate the role of drug transporter P-gp in the transcellular transport, permeability measurement was performed in the absence and presence of the selective P-gp inhibitor zosuquidar (5 µM final concentration). Apparent permeability coefficients (Papp,AB, Papp,BA) were calculated as follows:1 Papp,AB=Q_AB/C0×s×t 2 Papp,BA=Q_BA/C0×s×t where Q is the amount of compound recovered in the receiver compartment after the incubation time t, C0 the initial compound concentration given to the donor compartment, and s the surface area of the Transwell inserts. Efflux ratio is calculated as the quotient of Papp,BA (mean of duplicate) to Papp,AB (mean of duplicate). […] In addition, Transepithelial electrical resistance (TEER) values were measured for each plate before the permeability assay. All three parameters (efflux of the reference substrates, Papp values of the low permeable compound, and TEER values) were used to ensure the quality of the assays.

[2] = biological target: VCB: PROTAC: SMARCA4^BD ternary complex (Homo sapiens, UniProt P40337+P51532); assay: SPR ternary complex measurement, VCB immobilised, 10 µM SMARCA4^BD present; assay type: binding; design: P51532, residues 1448–1569 with additional N-terminal SM residues; His6 (TEV site) (N, cleaved yes); GST (TEV site) (N, cleaved yes); made in house; host or cells: SMARCA4^BD: Escherichia coli BL21(DE3); details: for Kd: SPR; for alpha: cooperativity, SMARCA4, ratio of KD values measured in the same run
Description: (§1) SPR data were acquired on Biacore 8K or T200 instruments (Cytiva). Target proteins were immobilised at 25 °C on CM5 chips by amine coupling (EDC/NHS, Cytiva) in HBS-P+ running buffer (pH 7.4), containing 2 mM TCEP. […] The reference surface was subsequently deactivated using 1 M ethanolamine. […] Biotinylated VCB was prepared as previously described[27]: in brief, the complex was mixed 1:1 with EZ-Link NHS–PEG4–biotin (Thermo Scientific) and incubated at room temperature for 1 h. Unreacted NHS-biotin was removed using a PD-10 desalting column (Cytiva) into 20 mM HEPES, pH 7.5, 150 mM sodium chloride and 1 mM DTT. The reference surface was generated by deactivating the EDC/NHS-treated surface with 1 M ethanolamine. All interaction experiments were done at 6 °C in running buffer (20 mM TRIS, pH 8.3, 150 mM potassium chloride, 2 mM magnesium chloride, 2 mM TCEP, 0.005% TWEEN 20, 1% dimethyl sulfoxide). For ternary complex measurements, a sensor chip surface with VCB immobilised was used (preparation as described above). Experiments were run in dual-inject mode with 10 µM SMARCA present during the injection and dissociation phase. Sensorgrams from reference surfaces and blank injections were subtracted from the raw data prior to data analysis using Biacore Insight software. Affinity and binding kinetic parameters were determined by global fitting using the 1:1 interaction model with a term for mass-transport included.

Microsomal stability = assay type: in vitro ADME; details: for Mic. Stab. Human / Mic. Stab. Human QH: human liver microsomes; for Mic. Stab. Mouse / Mic. Stab. Mouse QH: mouse liver microsomes; for Mic. Stab. Rat / Mic. Stab. Rat QH: rat liver microsomes
Description: […] Reactions were terminated by addition of acetonitrile and precipitates separated by centrifugation. Compound concentrations in supernatants were measured by HPLC-MS/MS and clearance was calculated from compound half-lives using the well-stirred liver model.

Solubility testing = assay type: physicochemical; details: for solubility at 24 h: buffer, kinetic from dmso stock
Description: Dilution into a 1:1 mixture of acetonitrile and water was used as reference. After 24 h, the incubations were filtrated, and the filtrate was analyzed by LC-UV.

[3] = biological target: VCB: PROTAC: SMARCA2^BD ternary complex (Homo sapiens, UniProt P40337+P51531); assay: SPR ternary complex measurement, VCB immobilised, 10 µM SMARCA2^BD present; assay type: binding; design: P51531-2, residues 1373-1493 with additional N-terminal SM residues; His6 (TEV site) (N, cleaved yes); GST (TEV site) (N, cleaved yes); made in house; host or cells: SMARCA2^BD: Escherichia coli BL21(DE3); details: for Kd: SPR; for alpha: cooperativity, SMARCA2, ratio of KD values measured in the same run
Description: as §1

[4] = Modified Caco-2, a to b, + PGPi (Zosuquidar)
[5] = ternary complex with SMARCA4BD, mean ± SD
[6] = ternary complex with SMARCA2BD, mean ± SD

VCB: PROTAC: SMARCA4^BD ternary complex (Homo sapiens, UniProt P40337+P51532), sequence (P40337 54-213): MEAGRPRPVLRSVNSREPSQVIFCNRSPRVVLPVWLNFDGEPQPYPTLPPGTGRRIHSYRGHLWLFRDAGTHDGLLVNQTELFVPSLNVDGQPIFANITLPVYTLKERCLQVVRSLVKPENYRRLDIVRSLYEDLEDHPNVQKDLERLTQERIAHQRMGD
VCB: PROTAC: SMARCA4^BD ternary complex (Homo sapiens, UniProt P40337+P51532), sequence (Q15369 17-112 partner limits assumed): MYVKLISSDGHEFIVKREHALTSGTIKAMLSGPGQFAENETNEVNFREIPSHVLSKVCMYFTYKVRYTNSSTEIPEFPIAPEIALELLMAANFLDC
VCB: PROTAC: SMARCA4^BD ternary complex (Homo sapiens, UniProt P40337+P51532), sequence (Q15370 1-104 partner limits assumed): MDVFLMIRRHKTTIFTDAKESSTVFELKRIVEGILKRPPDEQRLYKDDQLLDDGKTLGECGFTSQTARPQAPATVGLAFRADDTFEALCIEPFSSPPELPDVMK
VCB: PROTAC: SMARCA4^BD ternary complex (Homo sapiens, UniProt P40337+P51532), sequence (P51532 1448-1569): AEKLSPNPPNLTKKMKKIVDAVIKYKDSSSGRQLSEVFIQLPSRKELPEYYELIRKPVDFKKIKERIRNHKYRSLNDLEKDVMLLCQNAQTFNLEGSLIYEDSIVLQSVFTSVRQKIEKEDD
VCB: PROTAC: SMARCA2^BD ternary complex, sequence (P40337 54-213): as the sequence (P40337 54-213) above
VCB: PROTAC: SMARCA2^BD ternary complex, sequence (Q15369 17-112 partner limits assumed): as the sequence (Q15369 17-112 partner limits assumed) above
VCB: PROTAC: SMARCA2^BD ternary complex, sequence (Q15370 1-104 partner limits assumed): as the sequence (Q15370 1-104 partner limits assumed) above
VCB: PROTAC: SMARCA2^BD ternary complex, sequence (P51531 1373-1493 isoform P51531-2): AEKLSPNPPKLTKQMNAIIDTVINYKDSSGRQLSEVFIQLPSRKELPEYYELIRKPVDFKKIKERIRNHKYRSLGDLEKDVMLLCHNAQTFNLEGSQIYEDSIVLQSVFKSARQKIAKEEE

Cc1ncsc1-c1ccc([C@H](COC(C)CN2CCC(c3ccc4c(c3)n(C3CCCC3)c3nc(=O)c5c(Br)cccc5n43)CC2)NC(=O)[C@@H]2C[C@@H](O)CN2C(=O)[C@@H](NC(=O)C2(F)CC2)C(C)(C)C)cc1 (some centres unmarked) [compound 9]
cooperativity α (SMARCA4BD) [1]: 2.2 ± 0.2 | Caco-2 Pba (Caco-2 cell monolayer; Caco-2, b to a): 21 ×10⁻⁶ cm/s and 18 ×10⁻⁶ cm/s | Modified Caco-2 Efflux ratio (Caco-2 cell monolayer): 60.000 and 39 ± 21 | Modified Caco-2 Pab + PGPi (Zosuquidar) (Caco-2 cell monolayer; [4]): 11 ×10⁻⁶ cm/s and 14 ×10⁻⁶ cm/s | Modified Caco-2 Pba (Caco-2 cell monolayer; Modified Caco-2, b to a): 130 ×10⁻⁶ cm/s and 120 ×10⁻⁶ cm/s | Modified Caco-2 Pba + PGPi (Zosuquidar) (Caco-2 cell monolayer; Modified Caco-2, b to a, + PGPi (Zosuquidar)): 18 ×10⁻⁶ cm/s | Kd [2, 5]: 180 ± 13 nM | Kd ([2]; ternary, individual replicates): 171 nM and 174 nM and 195 nM | alpha [2]: 0.2 | Mic. Stab. Human (Microsomal stability): 55 ± 1 % QH | Mic. Stab. Human QH (Microsomal stability): 54.100% and 55.600% | Mic. Stab. Mouse (Microsomal stability): 27 ± 3 % QH | Mic. Stab. Mouse QH (Microsomal stability): 24.700% and 28.800% and < 24.200% | Mic. Stab. Rat (Microsomal stability): <23 % QH | Mic. Stab. Rat QH (Microsomal stability): <23.100 <23.100 <23.100% | solubility at 24 h (Solubility testing; pH 4.5, aqueous buffer, pH 4.5, read-out: Solubility pH 4.5): 14 µg/mL (≈ 13.3 µM) | solubility at 24 h (Solubility testing; pH 6.8, aqueous buffer, pH 6.8, read-out: Solubility pH 6.8): < 1 µg/mL | Kd [3, 6]: 210 ± 83 nM | Kd ([3]; ternary, individual replicates): 132 nM and 298 nM and 201 nM | alpha [3]: 0.2

Cc1ncsc1-c1ccc([C@H](CC[C@@H](C)CCN2CCC(c3ccc4c(c3)n(C3CCCC3)c3nc(=O)c5c(Br)cccc5n43)CC2)NC(=O)[C@@H]2C[C@@H](O)CN2C(=O)[C@@H](NC(=O)C2(F)CC2)C(C)(C)C)cc1 [compound 29]
cooperativity α (SMARCA4BD) [1]: 7.0 ± 1.3 | Caco-2 Pab (Caco-2 cell monolayer; Caco-2): 2 ± 0.2 10-6 cm/s | Caco-2 Pab (Caco-2 cell monolayer; Caco-2, a to b): 1.9e-06 cm/s and < 1.9e-06 cm/s and 2.4e-06 cm/s | Kd [2, 5]: 11 ± 1 nM | Kd ([2]; ternary, individual replicates): 11.5 nM (2×) and 9.84 nM | alpha [2]: 1.1 | Mic. Stab. Human (Microsomal stability): <24 % QH | Mic. Stab. Human QH (Microsomal stability): <24.400 <24.400% | Mic. Stab. Mouse (Microsomal stability): <24 % QH | Mic. Stab. Mouse QH (Microsomal stability): <24.200 <24.200% | Mic. Stab. Rat (Microsomal stability): <23 % QH | Mic. Stab. Rat QH (Microsomal stability): <23.100 <23.100% | Solubility pH 4.5 (Solubility testing; pH 4.5): <1.000 <1.000 ug/mL | Solubility pH 6.8 (Solubility testing; pH 6.8): <1.000 <1.000 ug/mL | Kd [3, 6]: 20 ± 4 nM | Kd ([3]; ternary, individual replicates): 15.6 nM and 23 nM and 21.9 nM | alpha [3]: 0.6

Cc1ncsc1-c1ccc([C@H](CCC(C)(C)CCN2CCC(c3ccc4c(c3)n(C3CCCC3)c3nc(=O)c5c(Br)cccc5n43)CC2)NC(=O)[C@@H]2C[C@@H](O)CN2C(=O)[C@@H](NC(=O)C2(F)CC2)C(C)(C)C)cc1 [compound 30]
cooperativity α (SMARCA4BD) [1]: 4.3 ± 0.5 | Caco-2 Efflux ratio (Caco-2 cell monolayer; Caco-2): 9.412 No peak area | Caco-2 Pab (Caco-2 cell monolayer; Caco-2): <0.3 10-6 cm/s | Modified Caco-2 Efflux ratio (Caco-2 cell monolayer): 7.333 and 12.000 and 10 ± 3 | Modified Caco-2 Pab (Caco-2 cell monolayer; Modified Caco-2, a to b): 4.5 ×10⁻⁶ cm/s and 2.5 ×10⁻⁶ cm/s | Modified Caco-2 Pab + PGPi (Zosuquidar) (Caco-2 cell monolayer; [4]): 7.2 ×10⁻⁶ cm/s and 8.4 ×10⁻⁶ cm/s | Kd [2, 5]: 45 ± 6 nM | Kd ([2]; ternary, individual replicates): 41.2 nM and 41.8 nM and 51.4 nM | alpha [2]: 0.6 | Mic. Stab. Human (Microsomal stability): <24 % QH | Mic. Stab. Human QH (Microsomal stability): <24.400 <24.400% | Mic. Stab. Mouse (Microsomal stability): <24 % QH | Mic. Stab. Mouse QH (Microsomal stability): <24.200% | Mic. Stab. Rat (Microsomal stability): <23 % QH | Mic. Stab. Rat QH (Microsomal stability): <23.100 <23.100% | Solubility pH 4.5 (Solubility testing; pH 4.5): <1.000 ug/mL | Solubility pH 6.8 (Solubility testing; pH 6.8): <1.000 ug/mL | Kd [3, 6]: 86 ± 22 nM | Kd ([3]; ternary, individual replicates): 66.1 nM and 109 nM and 81.8 nM | alpha [3]: 0.3

Cc1ncsc1-c1ccc([C@H](CCCCN2CCC(c3ccc4c(c3)n(C3CCCC3)c3nc(=O)c5c(Br)cccc5n43)CC2)NC(=O)[C@@H]2C[C@@H](O)CN2C(=O)[C@@H](NC(=O)C2(F)CC2)C(C)(C)C)cc1 [compound 25]
cooperativity α (SMARCA4BD) [1]: 2.3 ± 0.4 | Caco-2 Pab (Caco-2 cell monolayer; Caco-2): <4 10-6 cm/s | Caco-2 Pab (Caco-2 cell monolayer; Caco-2, a to b): <4.3e-06 cm/s | Kd [2, 5]: 14 ± 2 nM | Kd ([2]; ternary, individual replicates): 12.8 nM and 13.3 nM and 15.6 nM | alpha [2]: 0.4 | Mic. Stab. Human (Microsomal stability): 25 % QH | Mic. Stab. Human QH (Microsomal stability): 24.800% | Mic. Stab. Mouse (Microsomal stability): <24 % QH | Mic. Stab. Mouse QH (Microsomal stability): <24.200% | Mic. Stab. Rat (Microsomal stability): <23 % QH | Mic. Stab. Rat QH (Microsomal stability): <23.100% | Solubility pH 4.5 (Solubility testing; pH 4.5): <1.000 ug/mL | Solubility pH 6.8 (Solubility testing; pH 6.8): <1.000 ug/mL | Kd [3, 6]: 36 ± 15 nM | Kd ([3]; ternary, individual replicates): 22.7 nM and 51.6 nM and 32.9 nM | alpha [3]: 0.2
